# Test results: PubChem BioAssay (NCI)
#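 Interpolation was linear, between the two tested concentrations surrounding the appropriate level; five concentrations were tested over 48 hours in 96-well plates. The concentration for full growth arrest is given as TGI.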
# Key:
# Assay in all cases: DTP human tumour cell line panel, 48 h
# A549 NSCLC = system: A549 NSCLC
# HOP-92 NSCLC = system: HOP-92 NSCLC
# HT29 colon = system: HT29 colon
# K-562 leukemia = system: K-562 leukemia
# MALME-3M melanoma = system: MALME-3M melanoma
# NCI-H23 lung = system: NCI-H23 lung
# RXF 393 renal = system: RXF 393 renal
# SK-OV-3 ovarian = system: SK-OV-3 ovarian
# SW-620 colon = system: SW-620 colon
# PC-3 prostate = system: PC-3 prostate
SMILES,TGI (A549 NSCLC),TGI (HOP-92 NSCLC),TGI (HT29 colon),TGI (K-562 leukemia),TGI (MALME-3M melanoma),TGI (NCI-H23 lung),TGI (RXF 393 renal),TGI (SK-OV-3 ovarian),TGI (SW-620 colon),TGI (PC-3 prostate)
O=C1CCCn2c3ccccc3c3ccnc1c32,> 100 µM,> 100 µM,> 56.1 µM,> 100 µM,> 100 µM,> 100 µM,68.8 µM,> 100 µM,> 100 µM,
O=c1[nH]/c(=C/c2cccs2)c(=O)[nH]/c1=C/c1ccc(OCc2ccccc2)cn1,> 55.9 µM,,> 100 µM,27.4 µM,0.726 µM,1.7 µM,3.88 µM,16.1 µM,> 100 µM,> 44.4 µM
CCCc1c(OC)c(O)c2c(=O)cc(OC)c3c4c(OC)cc(=O)c5c(O)c(OC)c(CCC)c(c1c23)c54,25.8 µM,37.4 µM,17.9 µM,> 100 µM,10.7 µM,26.6 µM,,76.5 µM,16.9 µM,11.9 µM
COc1cc(/C=C/C(=O)OC[C@]23O[C@H]2[C@@H](OC2OC(C)C(O)C(O)C2O)C2C=CO[C@@H](OC4OC(CO)C(O)C(O)C4O)C23)ccc1O (some centres not stated),> 100 µM,> 100 µM,> 100 µM,> 100 µM,> 100 µM,> 100 µM,,> 100 µM,> 100 µM,> 100 µM
COc1cc2[nH]c(=O)[nH]c2c2c(C)c[nH]c12,> 100 µM,,> 100 µM,> 100 µM,> 100 µM,> 100 µM,> 100 µM,> 100 µM,> 100 µM,> 100 µM
COc1cc(CNc2nc3cc(C(F)(F)F)ccc3nc2C(=O)O)cc(OC)c1OC,61.5 µM,,,61 µM,> 100 µM,> 100 µM,> 100 µM,> 100 µM,> 100 µM,57.9 µM
Cc1cc2nc(N)n[n+]([O-])c2cc1C,> 100 µM,,> 100 µM,> 100 µM,> 100 µM,> 100 µM,> 100 µM,> 100 µM,> 100 µM,> 100 µM
O=C(O)CC(Cc1ccccc1)C(=O)O (configuration not stated),> 100 µM,,> 100 µM,> 100 µM,> 100 µM,> 100 µM,> 100 µM,> 100 µM,> 100 µM,> 100 µM
Cc1cc(S(=O)(=O)Nc2nc(N)n(-c3ccccc3)n2)c(S)cc1Cl,> 100 µM,,> 100 µM,> 100 µM,> 100 µM,,> 100 µM,> 100 µM,> 100 µM,> 100 µM
CCNc1nc2ccccc2nc1NCC,> 100 µM,,> 100 µM,> 100 µM,> 100 µM,> 100 µM,> 100 µM,> 100 µM,> 100 µM,> 100 µM
COc1c2c(cc3oc(=O)ccc13)OC(C)(C)C=C2,> 125 µM,34.1 µM,> 125 µM,> 125 µM,87.8 µM,60.1 µM,,> 125 µM,84.6 µM,
Nc1c(Cl)ncnc1NCC1(CO)CCC1,> 100 µM,> 100 µM,> 100 µM,> 100 µM,> 100 µM,> 100 µM,,,> 100 µM,> 100 µM
COc1ccc(/C=N/N=C(N)N)c(C(=O)O)c1OC,> 100 µM,,> 100 µM,> 100 µM,,> 100 µM,> 100 µM,> 100 µM,> 100 µM,
O=C1NC(N2CCOCC2)=N/C1=C\c1ccccc1,> 100 µM,> 100 µM,> 100 µM,,> 100 µM,> 100 µM,,> 100 µM,> 100 µM,> 100 µM
COc1cc(C(C)(C)C)c(OC(=O)/C=C/C(=O)O/C=C/[N+](=O)[O-])c(C(C)(C)C)c1,55 µM,> 100 µM,56.6 µM,> 100 µM,,42.6 µM,81.7 µM,> 100 µM,> 100 µM,
COC12OC3(C4OC41)C(C(=O)O[C@H]3CO[Si](C)(C)C(C)(C)C)C2S(=O)(=O)c1ccccc1 (some centres not stated),> 100 µM,> 100 µM,,5.03 µM,> 85.1 µM,> 100 µM,,> 30.4 µM,> 31.6 µM,> 90.2 µM
O=C1CCCc2ccc3c(c21)CC1(Cc2cc4c(cc2C1)CCCC4)C3,> 100 µM,28 µM,50.9 µM,25.1 µM,35.8 µM,49 µM,32 µM,> 100 µM,41.7 µM,
Nc1nc(-c2ccccc2)cc(-c2ccc(F)cc2)c1-c1ccc(Cl)cc1,> 100 µM,,> 100 µM,> 100 µM,> 100 µM,> 100 µM,> 100 µM,> 100 µM,> 100 µM,> 100 µM
N.N.NCCCCN.O=C([O-])CCl.O=C([O-])CCl.O=C([O-])CCl.O=C([O-])CCl.[Pt+4].[Pt+4],> 50 µM,> 50 µM,> 50 µM,> 50 µM,> 50 µM,> 50 µM,> 50 µM,> 50 µM,> 50 µM,
